Reference: PubChem BioAssay AID212 (DTP/NCI, 2004)
Where “and” joins values, the source holds several entries; their conditions need not be identical. Equal values may be shown once. Records with an inconclusive call do not appear.

Test system: BDF1 mice, colon carcinoma 38 sc, T/C %
Assay: NCI In Vivo Anticancer Drug Screen. Data for tumor model Colon Carcinoma 38 (subcutaneous) in B6D2F1 (BDF1) mice
Settings: endpoint: median tumor weight (est.), higher = larger tumour
Description: The antitumor activity of compounds was measured in mice bearing transplantable tumors. Survival or tumor size were measured and the results are expressed as the measurement made in the treated group (T) divided by the measurement made in the vehicle treated control group (C). The tumor model used in this assay is Colon Carcinoma 38 (subcutaneous) in B6D2F1 (BDF1) mice

[1] = dose: 50.0 mg/kg/injection, schedule: Q07DX002 (ip), vehicle: suspension in saline
[2] = dose: 100.0 mg/kg/injection, schedule: Q07DX002 (ip), vehicle: suspension in saline
[3] = dose: 25.0 mg/kg/injection, schedule: Q07DX002 (ip), vehicle: Klucel (hydroxypropylcellulose) (HPC)
[4] = dose: 400.0 mg/kg/injection, schedule: Q07DX002 (ip), vehicle: Klucel (hydroxypropylcellulose) (HPC)
[5] = dose: 100.0 mg/kg/injection, schedule: Q07DX002 (ip), vehicle: Klucel (hydroxypropylcellulose) (HPC)
[6] = dose: 200.0 mg/kg/injection, schedule: Q07DX002 (ip), vehicle: Klucel (hydroxypropylcellulose) (HPC)
[7] = dose: 800.0 mg/kg/injection, schedule: Q07DX002 (ip), vehicle: Klucel (hydroxypropylcellulose) (HPC)
[8] = dose: 1600.0 mg/kg/injection, schedule: Q07DX002 (ip), vehicle: Klucel (hydroxypropylcellulose) (HPC)

C/C=C(\C)c1cc(=O)c2c(C)cc3c(c2o1)C(=O)c1c(O)c(C2CC(C)(N(C)C)C(O)C(C)O2)cc(C2CC(N(C)C)C(O)C(C)O2)c1C3=O (stereo not given)
T/C (dose: 0.62 mg/kg/injection, schedule: Q07DX002 (ip), vehicle: saline): 117 % of control
T/C (dose: 1.25 mg/kg/injection, schedule: Q07DX002 (ip), vehicle: saline): 118 % of control
T/C (dose: 62.5 micrograms/kg/injection, schedule: Q07DX002 (ip), vehicle: saline): 109 % of control and 103 % of control
T/C (dose: 250.0 micrograms/kg/injection, schedule: Q07DX002 (ip), vehicle: saline): 81 % of control and 84 % of control
T/C (dose: 500.0 micrograms/kg/injection, schedule: Q07DX002 (ip), vehicle: saline): 80 % of control and 85 % of control
T/C (dose: 1000.0 micrograms/kg/injection, schedule: Q07DX002 (ip), vehicle: saline): 74 % of control and 95 % of control
T/C (dose: 2000.0 micrograms/kg/injection, schedule: Q07DX002 (ip), vehicle: saline): 100 % of control

Oc1ccc(O)cc1
T/C (dose: 6.25 mg/kg/injection, schedule: Q07DX002 (ip), vehicle: suspension in saline): 80 % of control
T/C (dose: 12.5 mg/kg/injection, schedule: Q07DX002 (ip), vehicle: suspension in saline): 95 % of control
T/C (dose: 25.0 mg/kg/injection, schedule: Q07DX002 (ip), vehicle: suspension in saline): 108 % of control
T/C [1]: 94 % of control
T/C [2]: 97 % of control

CSc1ncc2ncn(C3OC(CO)C(O)C3O)c2n1 (stereo not given)
T/C [3]: 194 % of control
T/C [4]: 56 % of control

O=NN(CCCl)C(=O)NCCO
T/C (dose: 3.12 mg/kg/injection, schedule: Q07DX002 (ip), vehicle: water): 75 % of control
T/C (dose: 12.5 mg/kg/injection, schedule: Q07DX002 (ip), vehicle: water): 18 % of control and 34 % of control
T/C (dose: 25.0 mg/kg/injection, schedule: Q07DX002 (ip), vehicle: water): 14 % of control

CC(=O)OCC1OC(n2ncc(=O)[nH]c2=O)C(OC(C)=O)C1OC(C)=O (stereo not given)
T/C [1]: 100 % of control
T/C [2]: 95 % of control
T/C (dose: 200.0 mg/kg/injection, schedule: Q07DX002 (ip), vehicle: suspension in saline): 52 % of control
T/C (dose: 400.0 mg/kg/injection, schedule: Q07DX002 (ip), vehicle: suspension in saline): 66 % of control
T/C (dose: 800.0 mg/kg/injection, schedule: Q07DX002 (ip), vehicle: suspension in saline): 64 % of control

CC1=NNC(=O)C1CCO (stereo not given)
T/C [3]: 97 % of control
T/C (dose: 50.0 mg/kg/injection, schedule: Q07DX002 (ip), vehicle: Klucel (hydroxypropylcellulose) (HPC)): 95 % of control
T/C [5]: 69 % of control
T/C [6]: 72 % of control
T/C [4]: 55 % of control
T/C [7]: 77 % of control

Cc1ccc(S(=O)(=O)OCOS(=O)(=O)c2ccc(C)cc2)cc1
T/C [5]: 61 % of control
T/C [6]: 104 % of control
T/C [4]: 80 % of control and 93 % of control
T/C [8]: 19 % of control and 27 % of control

COc1ccc(C2C(=O)c3ccc(OC)cc3OC2c2ccccc2)cc1 (stereo not given)
T/C (dose: 25.0 mg/kg/injection, schedule: Q07DX002 (ip), vehicle: other): 84 % of control
T/C (dose: 50.0 mg/kg/injection, schedule: Q07DX002 (ip), vehicle: other): 56 % of control
T/C (dose: 100.0 mg/kg/injection, schedule: Q07DX002 (ip), vehicle: other): 47 % of control
T/C (dose: 200.0 mg/kg/injection, schedule: Q07DX002 (ip), vehicle: other): 50 % of control
T/C (dose: 400.0 mg/kg/injection, schedule: Q07DX002 (ip), vehicle: other): 61 % of control

CN(C1=NS(=O)(=O)N=C(N(C)c2ccccc2)O1)c1ccccc1
T/C (dose: 12.5 mg/kg/injection, schedule: Q07DX003 (ip), vehicle: Klucel (hydroxypropylcellulose) (HPC)): 103 % of control
T/C (dose: 25.0 mg/kg/injection, schedule: Q07DX003 (ip), vehicle: Klucel (hydroxypropylcellulose) (HPC)): 68 % of control
T/C [5]: 119 % of control
T/C (dose: 100.0 mg/kg/injection, schedule: Q07DX003 (ip), vehicle: Klucel (hydroxypropylcellulose) (HPC)): 101 % of control
T/C [6]: 110 % of control
T/C (dose: 200.0 mg/kg/injection, schedule: Q07DX003 (ip), vehicle: Klucel (hydroxypropylcellulose) (HPC)): 113 % of control
T/C [4]: 162 % of control
T/C (dose: 400.0 mg/kg/injection, schedule: Q07DX003 (ip), vehicle: Klucel (hydroxypropylcellulose) (HPC)): 113 % of control
T/C [7]: 104 % of control
T/C [8]: 159 % of control

CC(=O)c1cccc(NC2C(N)C(NC(=O)N(C)C)(C(C)O)C(C)(O)C2(O)COC(=O)c2c(C)cccc2O)c1 (stereo not given)
T/C (dose: 1.0 mg/kg/injection, schedule: Q07DX002 (ip), vehicle: suspension in saline): 110 % of control
T/C (dose: 2.0 mg/kg/injection, schedule: Q07DX002 (ip), vehicle: suspension in saline): 152 % of control
T/C (dose: 4.0 mg/kg/injection, schedule: Q07DX002 (ip), vehicle: suspension in saline): 104 % of control
T/C (dose: 8.0 mg/kg/injection, schedule: Q07DX002 (ip), vehicle: suspension in saline): 71 % of control

CCN(CC)CCCC(C)Nc1c2ccc(Cl)cc2nc2ccc(OC)cc12 (stereo not given)
T/C (dose: 16.0 mg/kg/injection, schedule: Q07DX003 (ip), vehicle: suspension in saline): 96 % of control and 103 % of control
T/C (dose: 32.0 mg/kg/injection, schedule: Q07DX003 (ip), vehicle: suspension in saline): 95 % of control and 106 % of control
T/C (dose: 64.0 mg/kg/injection, schedule: Q07DX003 (ip), vehicle: suspension in saline): 53 % of control
T/C (dose: 128.0 mg/kg/injection, schedule: Q07DX003 (ip), vehicle: suspension in saline): 79 % of control

O=C1NC(=O)NC(C(=O)O)N1
T/C (dose: 56.25 mg/kg/injection, schedule: Q01DX001 (ip), vehicle: DMSO): 90 % of control
T/C (dose: 56.25 mg/kg/injection, schedule: Q07DX002 (ip), vehicle: DMSO): 122 % of control
T/C (dose: 112.5 mg/kg/injection, schedule: Q01DX001 (ip), vehicle: DMSO): 101 % of control
T/C (dose: 112.5 mg/kg/injection, schedule: Q07DX002 (ip), vehicle: DMSO): 121 % of control
T/C (dose: 225.0 mg/kg/injection, schedule: Q01DX001 (ip), vehicle: DMSO): 97 % of control
T/C (dose: 225.0 mg/kg/injection, schedule: Q07DX002 (ip), vehicle: DMSO): 75 % of control
T/C (dose: 450.0 mg/kg/injection, schedule: Q01DX001 (ip), vehicle: DMSO): 97 % of control
T/C (dose: 450.0 mg/kg/injection, schedule: Q07DX002 (ip), vehicle: DMSO): 101 % of control
T/C (dose: 900.0 mg/kg/injection, schedule: Q01DX001 (ip), vehicle: DMSO): 71 % of control
T/C (dose: 900.0 mg/kg/injection, schedule: Q07DX002 (ip), vehicle: DMSO): 108 % of control
T/C (dose: 1800.0 mg/kg/injection, schedule: Q07DX002 (ip), vehicle: DMSO): 112 % of control

C[C@@]12C(=O)OC(=O)[C@]1(C)[C@H]1CC[C@@H]2O1
T/C (dose: 0.12 mg/kg/injection, schedule: Q07DX002 (ip), vehicle: Klucel (hydroxypropylcellulose) (HPC)): 88 % of control
T/C (dose: 0.25 mg/kg/injection, schedule: Q07DX002 (ip), vehicle: Klucel (hydroxypropylcellulose) (HPC)): 65 % of control
T/C (dose: 0.5 mg/kg/injection, schedule: Q07DX002 (ip), vehicle: Klucel (hydroxypropylcellulose) (HPC)): 69 % of control
T/C (dose: 1.0 mg/kg/injection, schedule: Q07DX002 (ip), vehicle: Klucel (hydroxypropylcellulose) (HPC)): 76 % of control
T/C (dose: 2.0 mg/kg/injection, schedule: Q07DX002 (ip), vehicle: Klucel (hydroxypropylcellulose) (HPC)): 86 % of control

CN(C)C1C(=O)C(C(=O)NP(=O)(NCCCO)N(CCCl)CCCl)=C(O)C2(O)C(=O)C3=C(O)c4c(O)cccc4C(C)(O)C3CC12 (stereo not given)
T/C (dose: 50.0 mg/kg/injection, schedule: Q07DX002 (ip), vehicle: saline with Tween-80): 82 % of control
T/C (dose: 100.0 mg/kg/injection, schedule: Q07DX002 (ip), vehicle: saline with Tween-80): 95 % of control
T/C (dose: 200.0 mg/kg/injection, schedule: Q07DX002 (ip), vehicle: saline with Tween-80): 56 % of control
T/C (dose: 400.0 mg/kg/injection, schedule: Q07DX002 (ip), vehicle: saline with Tween-80): 17 % of control
